According to US5276048A, “4-(1H-pyrrol-1-yl)imidazoles with angiotensin II antagonist activity” (Warner-Lambert Company, priority 1992, dated 1994):

Tested on: renal hypertensive rats (2-kidney, 1-clip Goldblatt model)
Experiment: blood pressure lowering in renal hypertensive rats (2-kidney, 1-clip Goldblatt model)
Assay type: in vivo, rat
Settings: single oral dose of 30 mg/kg
Experimental: Finally, the compounds of Formula I were tested in vivo for blood pressure lowering effects in renal hypertensive rats (2-kidney, 1-clip Goldblatt model) according to the method described by S. Sen, et al, in Hypertension 1:427-434 (1979) and in Clin. Soc. 57:53-6, 1979.
Illustrative of the in vivo antihypertensive activity for compounds of Formula I is the data for 4-[2-(1-oxo-2,2,2-trifluoroethyl)-1H-pyrrol-1-yl]-2-propyl-1-[(2'-(1H-tetrazol-5-yl)biphen-4-yl)methyl]-1H-imidazole-5-carboxylic acid (Example 14). This compound lowers blood pressure by ≥50 mm Hg and is efficacious for more than 24 hours with a single oral dose of 30 mg/kg in the above rodent model.

With `CCCc1nc(-n2cccc2C(=O)C(F)(F)F)c(C(=O)O)n1Cc1ccc(-c2ccccc2-c2nnn[nH]2)cc1` [Example 14, 4-[2-(1-Oxo-2,2,2-trifluoroethyl)-1H-pyrrol-1-yl]-2-propyl-1-[(2'-(1H-tetrazol-5-yl)biphen-4-yl)methyl]-1H-imidazole-5-carboxylic acid] the duration of efficacy was “more than 24 hours” and the lowers blood pressure was no less than 50 mm Hg.
